According to US20060084597A2, “USE OF COMPOUNDS HAVING GIP ACTIVITY FOR THE TREATMENT OF DISORDERS ASSOCIATED WITH ABNORMAL LOSS OF CELLS AND/OR FOR THE TREATMENT OF OBESITY” (Eisai Co., Ltd., priority 2002, published 2006):

Assays:
[1] = tested on: adult hippocampal progenitor cells; assay: LDH release from dying cells; format: cell-based, rat; conditions: GIP 1 nM or FGF-2 20 ng/ml
Procedure: LDH-activity. Release of lactate dehydrogenase (LDH) from dying cells was measured using a routine photometric method (Dept. of Clinical Chemistry, Sahlgrenska University Hospital, Sweden). Cell culture medium was collected from culture wells seeded for the Apop Tag staining (see above). . The mean for each experiment was calculated from three different culture wells and each experiment was performed 4 times. The coefficient of variation for the assay was 1.7 % and the assay standard curve was linear for enzyme activities between 0.1–20 µkat/ dm^3.

[2] = tested on: adult hippocampal progenitor cells; assay: Apop-Tag staining for apoptotic or dead cells; format: cell-based, rat; conditions: control 3.31 + 0.67%
Procedure: Apop-Tag. Hippocampal progenitor cells were seeded at 1 x 10^4 cells/cm^2 on glass coverslips and treated the same way as for the proliferation assay and incubated with GIP (1 nM) or FGF-2 (20 ng/ml). Cells were fixed and stained for apoptosis according to the Apop Tag kit user manual (Apop Tag S160 direct, Intergene Company, Purchase, NY, USA). A negative control without TdT-enzyme was included and positive controls with addition of H2O2 (100 µM and 1 mM) and DNase I (1 µg/ml) was included. In the last washing step the cells were incubated with the nuclear dye bisBenzimide (Hoechst 33258, Sigma) for 30 min. Apoptotic or dead cells were identified by green fluorescence in the nuclei and Hoechst nuclear dye was used to discriminate total number of cells. Three coverslips per experiment was stained from four different experiments. Positive cells was quantified by scoring the immunoreactivity of 1000–3000 cells systematically observed in 6 nonoverlapping fields in each coverslip.

[3] = tested on: adult hippocampal progenitor cells; assay: CyQUANT cell proliferation assay (DNA content); format: cell-based, rat; conditions: for cells in a well at the end of the experiment: around 6 x 10^3 cells seeded, control well without FGF around 1.5 x 10^5
Procedure: Proliferation assay. Hippocampal progenitor cells were seeded at 0.2 x 10^4 cells/cm^2 on 24-well plates in culture medium containing human FGF-2 (20ng/ml) and left to grow for 48 h. After a further 48 h of growth without FGF-2, cells were incubated with porcine GIP at different concentrations (Sigma), FGF-2 alone or a combination of both GIP (1 nM) and FGF-2 for 48 h. Cell proliferation assay was performed using the CyQUANT Cell Proliferation Kit (Molecular Probes, Eugene, OR) and a GENios microplate reader (TECAN Austria GmbH, Grödig, Austria) according to the instructions of the manufacturer.

[4] = tested on: adult hippocampal progenitor cells; assay: methyl-[3H]-thymidine incorporation assay; format: cell-based, rat; conditions: 24 h, n = 12
Procedure: Thymidin-assay. Hippocampal progenitor cells were seeded at 0.5 x 10^4 cells/cm^2 on 48-well plates in culture medium and left to grow for 48 h. The cells were then labeled with methyl-[^3H]-thymidine and incubated with GIP (1 nM) or FGF-2 (20ng/ml) for 24 h. Cells were lysed in 0.4 M NaOH, transferred to scint vials, mixed with 0.4 M HCl and assayed for DNA synthesis by scintillation spectrometry. The mean for each experiment was calculated from four different culture wells and each experiment was performed 12 times.

[5] = tested on: hippocampal progenitor cells in adult rat DG; assay: Intracerebroventricular GIP infusion, BrdU-positive cell count in granule cell layer of dentate gyrus; format: in vivo; conditions: adult male SD rats, i.c.v. 1.92 nmol/day for 5 days
Procedure: Intracerebroventricular GIP infusion. Adult male SD rats (260-280 g; B&K Universal, Sweden) were intubated and ventilated with isoflurane in an O2/N2O mix (30:70). An infusion cannula connected to an osmotic pump (Alzet brain infusion kit II and Alzet 2001 osmotic pump, Alza Scientific Products, Palo Alto, CA) was placed in the 3rd cerebral ventricle (0.3 mm posterior from Bregma along the midline, 5 mm below skull surface). Each rat was infused (1 µl/hr) for 5 days with either GIP (1.92 nmol/day; n = 5) or vehicle (0.1 M PBS; n = 6) and sacrificed the last day. All animals received a single daily intraperitoneal injection of Bromodeoxyuridine (BrdU; 50 mg/kg of body weight; Boehringer Mannheim; Scandinavia AB, Bromma, Sweden).
Immunohistochemistry and cellcounting. Brains were sectioned and stained for BrdU using a primary mouse BrdU antibody (1:400, Boeringer Mannheim) and biotinylated horse anti-mouse IgG (1:125) secondary antibodies (Vector Laboratories, Burlingame, CA) as previously described^11. For each animal, the total number of BrdU-positive cells in the granule cell layer, including the subgranular layer, and their corresponding sample volume were determined in 12 immunoperoxidase-stained, 40-µm-thick coronal sections taken 240 µm apart. […] Results are expressed as BrdU-positive cells per sample volume.
Statistics. […] All values are expressed as the means ± SEM.

[6] = Effect on weight gain after intraventricular infusion in the brain; format: in vivo, rat; conditions: male Sprague-Dawley rats, 1.92 nmol/day intraventricularly, 5 days
Procedure: Rats (male Sprague-Dawley) were given either GIP (6 rats, 1.92 nmol/day) or phosphate buffered saline (PBS) as control-solution (7 rats), intraventricularly in the brain by osmotic mini-pumps. The rats were given substance during five days, and then sacrificed.
The weight of each rat was recorded and the total weight gain during the five days calculated.

Substance | extracellular level of released LDH compared with controls [1] | cell death ([2]; FGF-2 20 ng/ml) | increase in cell proliferation relative to control ([3]; FGF-2 20 ng/ml alone, 48 h, n = 4) [%] | cells in a well at the end of the experiment [3] | increase in thymidin incorporation compared to control ([4]; FGF-2 20 ng/ml) [%] | number of BrdU+ cells in the granule cell layer ([5]; n = 5, PBS 14986 ± 1831) [cells/mm^3] | increase in BrdU-positive cells versus PBS-treated animals ([5]; p < 0.05) [%] | cell death compared with control ([2]; GIP 1 nM) | proliferative effect ([3]; GIP 0.1 pM, 48 h) | proliferative effect compared with FGF-2 ([3]; GIP 1 nM vs FGF-2 20 ng/ml) | increase in cell proliferation relative to control ([3]; GIP 1 nM, 48 h, n = 8) [%] | rate of cell proliferation, dose-dependent ([3]; GIP doses from 1 pM to 0.1 µM, 48 h) | weight gain as % of the weight gain seen in the PBS treated rats [6] [%] | total weight gain during the five days ([6]; PBS 28.5g) [g] | increase in thymidin incorporation compared to control ([4]; GIP 1 nM) [%]
FGF-2: human fibroblast growth factor-2, a well-documented proliferative agent of these cells [reference compound] | no statistical difference | 0.96 + 0.21% | 112.3 ± 20 | ~3 x 10^5 cells | 60.1 ± 7.1 | – | – | – | – | – | – | – | – | – | –
GIP: 42 amino acid gastric inhibitory polypeptide; porcine GIP (Sigma) used in the cell assays (YAEGTFISDYSIAMDKIRQQDFVNWLLAQKGKKSDWKHNITQ; Gastric inhibitory polypeptide synthetic; UniProt P01281 1-42, looked up) | no statistical difference | – | – | ~2.5 x 10^5 cells | – | 27969 ± 5795 | 86 | not statistically different | absent | slightly more than half | 74.5 ± 14.4 | significant increases | 63 | 17.9 | 32.4 ± 3.3
